The target in series [1] is T1, purified recombinant rat CSPα (Rattus norvegicus, UniProt P60905).
T1 construct: gene Dnajc5; purified recombinant soluble CSPα
T1 sequence (P60905 1-198): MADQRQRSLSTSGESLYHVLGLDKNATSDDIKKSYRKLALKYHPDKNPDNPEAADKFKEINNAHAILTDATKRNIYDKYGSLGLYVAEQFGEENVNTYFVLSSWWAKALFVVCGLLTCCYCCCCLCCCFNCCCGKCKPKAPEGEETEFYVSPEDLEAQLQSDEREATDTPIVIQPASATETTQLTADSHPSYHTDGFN
The series is described as follows: SDS-resistant dimerization of purified protein, SDS-PAGE. Particulars: 24 h incubation; concentration series. The series is classed as binding.

The target of another series is T2, c-myc-CSPα (Rattus norvegicus, UniProt P60905).
T2 construct: gene Dnajc5; full-length CSPα1-198, c-myc tag kept; transient expression in CAD mouse neuroblastoma cells; palmitoylated monomer ~34 kDa, dimer ~72 kDa
T2 sequence (P60905 1-198): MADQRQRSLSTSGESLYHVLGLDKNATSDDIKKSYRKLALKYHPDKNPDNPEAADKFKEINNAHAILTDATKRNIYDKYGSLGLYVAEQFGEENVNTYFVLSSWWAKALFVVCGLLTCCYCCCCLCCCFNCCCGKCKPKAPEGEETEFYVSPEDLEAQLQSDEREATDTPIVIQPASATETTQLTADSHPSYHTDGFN
Kind of series: CSPα dimer in transfected CAD cells, anti-myc Western blot. The series is classed as cell-based. Particulars: 24 h treatment of intact cells, cysteine string region. For orientation: Immunoblotting shows a protein as a band on a membrane.

Series [2] deals with the molecule itself. The series is described as follows: SDS-resistant dimer on SDS-PAGE with Western blot; lysates of transiently transfected CAD cells, control or treated 24 h with quercetin (up to 200 µM), EGCG or other agents; 30-40 µg protein in SDS sample buffer at 37°C or 80°C; dimer at ∼72 kDa.

Turning to `O=c1c(O)c(-c2ccc(O)c(O)c2)oc2cc(O)cc(O)c12` [quercetin, 3,3′,4′,5,7-pentapentahydroxyflavone], the CSPα dimer formation result in series [1] is “quercetin triggered dimerization of recombinant CSPα in a concentration dependent manner”. Also, the “fold CSPα dimer vs control at 100 μM” value on c-myc-CSPα was found to be 4 fold.

B1: c-myc tagged rat CSPα_(1–198) (cysteine string protein) (natural protein, UniProt P60905 1-198, looked up)
chain: MADQRQRSLSTSGESLYHVLGLDKNATSDDIKKSYRKLALKYHPDKNPDNPEAADKFKEINNAHAILTDATKRNIYDKYGSLGLYVAEQFGEENVNTYFVLSSWWAKALFVVCGLLTCCYCCCCLCCCFNCCCGKCKPKAPEGEETEFYVSPEDLEAQLQSDEREATDTPIVIQPASATETTQLTADSHPSYHTDGFN
modifications: both unmodified and palmitoylated (extensive fatty acylation) species seen
notes: cysteine string protein alpha (CSPα), rat, residues 1-198; also called c-myc-CSPα; source: CAD mouse neuroblastoma cells, transiently transfected, in lysate
Turning to B1, in series [2], the “fold dimer with 100 µM quercetin at 24 hrs over control” value stood at 4 fold.

The record behind these values is PMC2883571, “Quercetin Targets Cysteine String Protein (CSPα) and Impairs Synaptic Transmission” (PLoS ONE, 2010).
